From patent publication US20060122189A1, “Phenylpiperazine derivatives with a combination of partial dopamine-D2 receptor agonism and serotonin reuptake inhibition” (priority 2004, published 2006) come the findings set out here.

The target in one series is T1, serotonin reuptake sites (Rattus norvegicus, UniProt P31652).
T1 construct: from tissue
Description: In vitro affinity for serotonin reuptake sites ([3H]-paroxetine binding). The conditions noted are these: read-out: 5-HT reuptake binding pKi (converted). The method, then: In Vitro Affinity for Serotonin Reuptake Sites
Affinity of the compounds for serotonin reuptake sites was determined using the receptor binding assay described by E. Habert et al.,: “Characterisation of [^3H]-paroxetine binding to rat cortical membranes”, Eur. J. Pharmacol., 118, 107-114, 1985.

Series [1] deals with T2, Human dopamine D2,L receptors (Homo sapiens, UniProt P14416).
T2 construct: host or cells: CHO-K1
Description: Inhibition of forskolin-induced [3H]-cAMP accumulation in CHO-K1 cells. Format: cell-based. The conditions noted are these: cloned human dopamine D2,L receptors; full agonist ε=1, full antagonist ε=0. As to the method: Inhibition of Forskolin-Induced [^3H]-cAMP Accumulation
The in vitro functional activity at dopamine-D2 receptors, including the intrinsic activity (E) of the compounds of the invention was measured by their ability to inhibit forskolin-induced [^3H]-cAMP accumulation.
Human dopamine D2,L receptors were cloned in fibroblast cell line CHO-K1′ cells and obtained from Dr. Grandy, Vollum Institute, Portland, Oreg., USA. CHO cells were grown in a Dulbecco's modified Eagle's medium (DMEM) culture medium, supplemented with 10% heat-inactivated fetal calf serum, 2 mM glutamine, 1 mM pyruvate, 5000 units/ml penicillin, 5000 μg/ml streptomycin and 200 μg/ml G-418 at 37° C. in 93% air/7% CO2. For incubation with test compounds, confluent cultures grown in 24 wells plates were used. Each condition or substance was routinely tested in quadruplicate. Cells were loaded with 1 μCi [^3H]-adenine in 0.5 ml medium/well. After 2 hours, cultures were washed with 0.5 ml PBS containing 1 mM of the phosphodiesterase inhibitor isobutylmethylxanthine (IBMX) and incubated for 20 min with 0.5 ml PBS containing 1 mM IBMX and forskolin with or without test compound. After aspiration the reaction was stopped with 1 ml trichloroacetic acid 5% (w/v). […] 0.8 ml Extract was passed over Dowex (50WX-4 200-400 mesh) and aluminumoxide columns, eluted with water and 0.1M imidazole (pH=7.5). Eluates were mixed with 7 ml Insta-gel and radioactivity was counted with a liquid scintillation counter. The conversion of [^3H]-ATP into [^3H]-cAMP was expressed as the ratio in percentage radioactivity in the cAMP fraction as compared to combined radioactivity in both cAMP and ATP fractions, and basal activity was subtracted to correct for spontaneous activity.
Test compounds were obtained as 10 mM stock solutions in 100% DMSO, and diluted in PBS/IBMX to final concentrations. Typically, compounds were used in concentrations that ranged from 10^−10M to 10^−5M. From quadruplicate data counts, the mean was taken as an estimate for drug-induced, receptor-mediated effects at specified second messenger accumulation, expressed as percentage of control values (forskolin-stimulated cAMP accumulation, subtracted by basal activity). By using the non-linear curve-fitting program INPLOT or the Excel-add-in XL-Fit, mean values were plotted against drug concentration (in molar) and a sigmoid curve (four-parameter logistic curve) was constructed. The maximal forskolin-induced stimulated conversion is taken as maximum value and the maximal inhibition (usually at drug concentrations 10^−4 M or 10^−5 M) as minimum and these values were fixed during the fitting process. Thus, concentrations of the compound, causing 50% of the maximally obtained inhibition of forskolin-induced cAMP accumulation (EC50), are averaged over several experiments and presented as mean pEC50±SEM. Antagonist potency is assessed by co-incubating cells with a fixed agonist concentration and specified antagonist concentrations. Curve fitting procedures are identical to those used for estimating EC50 values. Thus IC50 values, i.e. the concentration that is able to achieve 50% of maximal antagonism that can be achieved by this compound. IC50 values are corrected using a Cheng-Prussoff equation, correcting it for agonist concentration and EC50 values that is obtained in the same experiment. Thus, Kb=IC50/(1+[agonist]/EC50, agonist). The corresponding pA2 value is −log (Kb). Concentration-response curve fitting allows estimation of pEC50 values and of maximal achievable effect (intrinsic activity or efficacy (ε). A full receptor agonist has ε=1, a full receptor antagonist has ε=0, and a partial receptor agonist has an intermediate intrinsic activity.

Structures are written as SMILES.

T1 sequence (P31652 whole entry): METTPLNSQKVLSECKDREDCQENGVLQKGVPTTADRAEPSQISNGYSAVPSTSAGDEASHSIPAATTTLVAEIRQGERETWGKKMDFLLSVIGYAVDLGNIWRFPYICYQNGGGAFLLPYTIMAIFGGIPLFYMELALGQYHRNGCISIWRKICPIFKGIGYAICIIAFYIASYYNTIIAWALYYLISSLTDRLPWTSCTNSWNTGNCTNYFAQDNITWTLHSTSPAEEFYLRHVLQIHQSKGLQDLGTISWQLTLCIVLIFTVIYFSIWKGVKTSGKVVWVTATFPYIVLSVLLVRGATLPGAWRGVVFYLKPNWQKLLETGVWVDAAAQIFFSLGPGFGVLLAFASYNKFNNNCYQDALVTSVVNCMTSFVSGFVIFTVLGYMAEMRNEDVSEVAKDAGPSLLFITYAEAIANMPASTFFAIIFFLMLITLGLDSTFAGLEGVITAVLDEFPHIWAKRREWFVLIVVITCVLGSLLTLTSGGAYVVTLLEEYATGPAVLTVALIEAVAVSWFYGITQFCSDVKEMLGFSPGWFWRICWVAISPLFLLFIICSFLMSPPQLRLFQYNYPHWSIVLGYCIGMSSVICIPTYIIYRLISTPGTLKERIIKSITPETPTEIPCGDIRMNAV
T2 sequence (P14416 whole entry): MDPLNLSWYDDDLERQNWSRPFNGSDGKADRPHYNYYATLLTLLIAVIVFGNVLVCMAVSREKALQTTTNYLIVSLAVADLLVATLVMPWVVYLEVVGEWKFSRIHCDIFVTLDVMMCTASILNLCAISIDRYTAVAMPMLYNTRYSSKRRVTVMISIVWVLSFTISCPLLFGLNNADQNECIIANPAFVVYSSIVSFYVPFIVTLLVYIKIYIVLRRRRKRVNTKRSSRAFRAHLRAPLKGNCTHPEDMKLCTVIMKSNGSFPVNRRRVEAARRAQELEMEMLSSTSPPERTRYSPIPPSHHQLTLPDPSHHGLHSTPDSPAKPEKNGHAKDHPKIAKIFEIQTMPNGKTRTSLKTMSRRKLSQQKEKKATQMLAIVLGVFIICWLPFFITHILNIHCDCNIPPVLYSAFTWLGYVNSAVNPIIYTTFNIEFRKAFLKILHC

`N#Cc1ccc2occ(CCCCN3CCN(c4cccc5[nH]c(=O)oc45)CC3)c2c1` [Compound 6] registered a melting point of 180 to 182 °C. Also, at serotonin reuptake sites, the Ki is 0.158 nM. Besides, the “Dopamine-D2 cAMP accum ε (intrinsic activity)” value (from here on “Dopamine-D2 cAMP accum ε”) in series [1] worked out at 0.85.

As for `O=c1[nH]c2cccc(N3CCN(CCCc4csc5ccc(Cl)cc45)CC3)c2o1` [Compound 7], the melting point lay within 211 to 213 °C. The Ki at serotonin reuptake sites was 3.16 nM. In addition, the “Dopamine-D2 cAMP accum ε” value in series [1] is given as 0.39.

With `O=c1[nH]c2cccc(N3CCN(CCCc4csc5ccc(F)cc45)CC3)c2o1` [Compound 8], the melting point fell in the range of 193 to 195 °C. Further, the Ki on serotonin reuptake sites is 1.26 nM. In series [1], the “Dopamine-D2 cAMP accum ε” value worked out at 0.10.

With `O=c1[nH]c2cccc(N3CCN(CCCCn4ccc5ccc(F)cc54)CC3)c2o1` [Compound 16], the melting point was in the range of 143 to 145 °C. The Ki on serotonin reuptake sites was 0.794 nM. The “Dopamine-D2 cAMP accum ε” value in series [1] came out at 0.73.

As for `Cn1c(=O)oc2c(N3CCN(CCCCc4csc5ccc(C#N)cc45)CC3)cccc21` [Compound 94], the melting point lay in the range of 184 to 186 °C. Also, the Ki at serotonin reuptake sites was 3.16 nM. The “Dopamine-D2 cAMP accum ε” value in series [1] amounted to 0.70.

For `Cn1c(=O)oc2c(N3CCN(CCC#Cc4ccc5ccc(F)cc5c4)CC3)cccc21` [Compound 135], the Ki at serotonin reuptake sites was 2 nM. In series [1], the “Dopamine-D2 cAMP accum ε” value is 0.45.
